From ChEMBL document CHEMBL1139332, “Selective activity against Mycobacteriumtuberculosis of new quinoxaline 1,4-di-N-oxides” (Bioorg Med Chem, 2009) come the findings set out here.

Experiment [1] concerns Mycobacterium tuberculosis. Nature of the experiment: Antimicrobial activity against Mycobacterium tuberculosis H37Rv at 6.25 ug/ml by microplate alamar blue assay. It counts as functional.
Experiment [2] in a line: Selectivity index, ratio of IC50 for african green monkey Vero cells to MIC for Mycobacterium tuberculosis H37Rv. The class given is functional.
Experiment [3] deals with Vero. Kind of experiment: Cytotoxicity against african green monkey Vero cells after 72 hrs by MTT assay. It counts as cell-based, Chlorocebus sabaeus. As to conditions: Chlorocebus sabaeus, Vero, 72 h; read-out: IC50.
The test system of experiment [4] is Mycobacterium tuberculosis. Kind of experiment: Antimicrobial activity against Mycobacterium tuberculosis H37Rv by microplate alamar blue assay. It counts as functional.

Molecules are shown by their SMILES. In brackets after ≈: the same amount, converted by molar mass.

As for `COC(=O)c1ccc(-c2c(C#N)[n+]([O-])c3ccccc3[n+]2[O-])cc1`, the inhibition at 6.25 µg/mL in experiment [1] amounted to 90%. Moreover, the Ratio in experiment [2] came to 6.2. For the same compound, the half-maximal inhibitory concentration (IC50) in experiment [3] is 4.8 µg/mL (≈ 14.9 µM). This compound also gave a minimal inhibitory concentration (MIC) in experiment [4] of 0.78 µg/mL (≈ 2.43 µM).

In experiment [1], `Cc1ccc(-c2c(C#N)[n+]([O-])c3cc(Cl)c(Cl)cc3[n+]2[O-])cc1` yielded an inhibition at 6.25 µg/mL of 90%. Moreover, the Ratio in experiment [2] was determined as 0.23. In addition, in experiment [3], the IC50 came out at 0.72 µg/mL (≈ 2.08 µM). Also, the minimal inhibitory concentration (MIC) in experiment [4] turned out to be 3.13 µg/mL (≈ 9.04 µM).

On to `CCOC(=O)c1c(-c2ccccc2)[n+]([O-])c2ccc(Cl)cc2[n+]1[O-]`, for which testing at 6.25 µg/mL in experiment [1] gave an inhibition of 90%. The Ratio in experiment [2] is on record as 2.13. Also, the IC50 in experiment [3] was found to be 3.33 µg/mL (≈ 9.66 µM). Further, the MIC in experiment [4] was 1.56 µg/mL (≈ 4.52 µM).

`COC(=O)c1ccc(-c2c(C#N)[n+]([O-])c3cc(C(F)(F)F)ccc3[n+]2[O-])cc1` had an inhibition at 6.25 µg/mL in experiment [1] of 90%. In addition, in experiment [2], the Ratio is given as more than 9.64. Moreover, the concentration for half-maximal inhibition (IC50) in experiment [3] is 1.93 µg/mL (≈ 4.96 µM). Further, the MIC in experiment [4] is less than 0.2 µg/mL.

In turn, `CCOC(=O)c1c(-c2ccccc2)[n+]([O-])c2ccc(OC)cc2[n+]1[O-]` showed an inhibition at 6.25 µg/mL in experiment [1] of 90%. The Ratio in experiment [2] was 2.84. The half-maximal inhibitory concentration (IC50) in experiment [3] was found to be 17.8 µg/mL (≈ 52.2 µM). Further, in experiment [4], the minimum inhibitory concentration (MIC) was found to be 6.25 µg/mL (≈ 18.4 µM).

`CCOC(=O)c1c(-c2ccccc2)[n+]([O-])c2cc(C)c(C)cc2[n+]1[O-]` yielded an inhibition at 6.25 µg/mL in experiment [1] of 90%. Moreover, the Ratio in experiment [2] was more than 1.6. Moreover, in experiment [3], the half-inhibitory concentration (IC50) is more than 10 µg/mL. In experiment [4], this compound showed an MIC of 6.25 µg/mL (≈ 18.5 µM).

Compound `CCOC(=O)c1c(-c2ccccc2)[n+]([O-])c2ccccc2[n+]1[O-]` yielded an inhibition at 6.25 µg/mL in experiment [1] of 90%. The Ratio in experiment [2] stood at 15.87. Further, in experiment [3], the IC50 turned out to be 24.8 µg/mL (≈ 79.8 µM). Moreover, the minimal inhibitory concentration (MIC) in experiment [4] worked out at 1.56 µg/mL (≈ 5.03 µM).

For `CCOC(=O)c1c(-c2ccc(Br)cc2)[n+]([O-])c2ccccc2[n+]1[O-]`, in experiment [1], the inhibition at 6.25 µg/mL came to 90%. Further, the Ratio in experiment [2] came to 15.69. Moreover, in experiment [3], the IC50 was 6.12 µg/mL (≈ 15.7 µM). This compound also came in with an MIC in experiment [4] of 0.39 µg/mL (≈ 1 µM).

As to `CCOC(=O)c1c(-c2ccc(F)cc2)[n+]([O-])c2ccccc2[n+]1[O-]`, at 6.25 µg/mL the inhibition in experiment [1] was 90%. For the same compound, the Ratio in experiment [2] is listed as 22.82. Besides, the IC50 in experiment [3] was 8.9 µg/mL (≈ 27.1 µM). Besides, in experiment [4], inhibition of growth (MIC) required 0.39 µg/mL (≈ 1.19 µM).

For the compound `CCOC(=O)c1c(-c2ccc(Cl)cc2)[n+]([O-])c2ccccc2[n+]1[O-]`, at 6.25 µg/mL the inhibition in experiment [1] was 90%. In addition, the Ratio in experiment [2] is given as 12.31. For the same compound, in experiment [3], the IC50 stood at 4.8 µg/mL (≈ 13.9 µM). This compound also returned a minimal inhibitory concentration (MIC) in experiment [4] of 0.39 µg/mL (≈ 1.13 µM).

As for `CCOC(=O)c1c(-c2ccc(C)cc2)[n+]([O-])c2ccccc2[n+]1[O-]`, the inhibition at 6.25 µg/mL in experiment [1] is 90%. The Ratio in experiment [2] is recorded as 14.47. The IC50 in experiment [3] is 11.3 µg/mL (≈ 34.8 µM). In experiment [4], inhibition of growth (MIC) required 0.78 µg/mL (≈ 2.4 µM).

Consider `CCOC(=O)c1c(-c2ccc(C(F)(F)F)cc2)[n+]([O-])c2ccccc2[n+]1[O-]`, for which the inhibition at 6.25 µg/mL in experiment [1] was determined as 90%. Also, the Ratio in experiment [2] came to 1.44. Besides, in experiment [3], the 50% inhibitory concentration (IC50) came out at 2.24 µg/mL (≈ 5.92 µM). This compound showed a minimal inhibitory concentration (MIC) in experiment [4] of 1.56 µg/mL (≈ 4.12 µM).

With `Cc1ccc(-c2c(C#N)[n+]([O-])c3cc(C)c(C)cc3[n+]2[O-])cc1`, the inhibition at 6.25 µg/mL in experiment [1] worked out at 90%. Moreover, the Ratio in experiment [2] is recorded as more than 40. In addition, the IC50 in experiment [3] was more than 62.5 µg/mL. Besides, in experiment [4], the minimum inhibitory concentration (MIC) amounted to 1.56 µg/mL (≈ 5.11 µM).

On to `COC(=O)c1ccc(-c2c(C#N)[n+]([O-])c3cc(C)c(C)cc3[n+]2[O-])cc1`, for which, in experiment [1], the inhibition at 6.25 µg/mL is 90%. In addition, the Ratio in experiment [2] was determined as 1.5. Further, the IC50 in experiment [3] worked out at 9.66 µg/mL (≈ 27.7 µM). Further, in experiment [4], the lowest concentration to inhibit growth (MIC) was 6.25 µg/mL (≈ 17.9 µM).

Regarding `CCOC(=O)c1c(-c2ccc([N+](=O)[O-])cc2)[n+]([O-])c2ccccc2[n+]1[O-]`, the inhibition at 6.25 µg/mL in experiment [1] came to 90%. Besides, the Ratio in experiment [2] stood at 2.9. Also, in experiment [3], the half-maximal inhibitory concentration (IC50) came out at 2.26 µg/mL (≈ 6.36 µM). Further, in experiment [4], inhibition of growth (MIC) required 0.78 µg/mL (≈ 2.2 µM).

`COc1ccc2c(c1)[n+]([O-])c(C#N)c(-c1ccc(C)cc1)[n+]2[O-]` displayed an inhibition at 6.25 µg/mL in experiment [1] of 90%. Also, the Ratio in experiment [2] came out at 2.4. Moreover, the half-maximal inhibitory concentration (IC50) in experiment [3] came out at 3.8 µg/mL (≈ 12.4 µM). Moreover, in experiment [4], the MIC is 1.56 µg/mL (≈ 5.08 µM).

In the case of `COC(=O)c1ccc(-c2c(C#N)[n+]([O-])c3cc(Cl)ccc3[n+]2[O-])cc1`, in experiment [1], testing at 6.25 µg/mL gave an inhibition of 90%. Moreover, in experiment [2], the Ratio came out at 6.7. The IC50 in experiment [3] amounted to 20.9 µg/mL (≈ 58.7 µM). The minimum inhibitory concentration (MIC) in experiment [4] came to 3.13 µg/mL (≈ 8.8 µM).

Compound `COC(=O)c1ccc(-c2c(C#N)[n+]([O-])c3cc(C)ccc3[n+]2[O-])cc1` yielded an inhibition at 6.25 µg/mL in experiment [1] of 90%. For the same compound, the Ratio in experiment [2] was found to be 8.2. Further, the IC50 in experiment [3] worked out at 3.2 µg/mL (≈ 9.54 µM). Besides, the lowest concentration to inhibit growth in experiment [4] (MIC) was 0.39 µg/mL (≈ 1.16 µM).

Turning to `COC(=O)c1ccc(-c2c(C#N)[n+]([O-])c3cc(OC)ccc3[n+]2[O-])cc1`, 6.25 µg/mL produced 90% inhibition in experiment [1]. Further, the Ratio in experiment [2] is reported as 1.2. Further, in experiment [3], the IC50 was 3.9 µg/mL (≈ 11.1 µM). 3.13 µg/mL (≈ 8.91 µM) was the least that counted as inhibitory in experiment [4] (MIC).

As for `Cc1ccc(-c2c(C#N)[n+]([O-])c3cc(C(F)(F)F)ccc3[n+]2[O-])cc1`, the inhibition at 6.25 µg/mL in experiment [1] stood at 90%. Also, the Ratio in experiment [2] is reported as more than 1.42. Besides, the IC50 in experiment [3] came to 0.28 µg/mL (≈ 0.811 µM). Also, the minimum inhibitory concentration (MIC) in experiment [4] was less than 0.2 µg/mL.

In experiment [1], `COc1ccc(-c2c(C#N)[n+]([O-])c3cc(F)ccc3[n+]2[O-])cc1` displayed an inhibition at 6.25 µg/mL of 90%. Also, the Ratio in experiment [2] turned out to be 65.15. Further, in experiment [3], the IC50 stood at 13 µg/mL (≈ 41.9 µM). Besides, the minimal inhibitory concentration (MIC) in experiment [4] was less than 0.2 µg/mL.

Consider `CCOC(=O)c1c(-c2ccccc2)[n+]([O-])c2ccc(C)cc2[n+]1[O-]`, for which 6.25 µg/mL produced 90% inhibition in experiment [1]. Moreover, the Ratio in experiment [2] is listed as 11.93. Moreover, the IC50 in experiment [3] was 18.6 µg/mL (≈ 57.4 µM). This compound registered an MIC in experiment [4] of 1.56 µg/mL (≈ 4.81 µM).

Compound `CCOC(=O)c1c(-c2ccccc2)[n+]([O-])c2cc(F)c(F)cc2[n+]1[O-]` yielded an inhibition at 6.25 µg/mL in experiment [1] of 90%. In addition, the Ratio in experiment [2] is listed as 0.24. Moreover, the IC50 in experiment [3] was 0.38 µg/mL (≈ 1.1 µM). The same compound showed an MIC in experiment [4] of 1.56 µg/mL (≈ 4.5 µM).

As to `COc1ccc(-c2c(C#N)[n+]([O-])c3cc(C(F)(F)F)ccc3[n+]2[O-])cc1`, the inhibition at 6.25 µg/mL in experiment [1] amounted to 90%. Besides, the Ratio in experiment [2] is reported as more than 4.53. The IC50 in experiment [3] turned out to be 0.9 µg/mL (≈ 2.49 µM). Further, in experiment [4], the MIC was less than 0.2 µg/mL.

`CCOC(=O)c1c(-c2ccc(OC)cc2)[n+]([O-])c2ccccc2[n+]1[O-]` displayed an inhibition at 6.25 µg/mL in experiment [1] of 90%. Moreover, the Ratio in experiment [2] is 4.9. The IC50 in experiment [3] stood at 7.65 µg/mL (≈ 22.5 µM). Also, the minimal inhibitory concentration (MIC) in experiment [4] was determined as 1.56 µg/mL (≈ 4.58 µM).

Regarding `COC(=O)c1ccc(-c2c(C#N)[n+]([O-])c3cc(F)ccc3[n+]2[O-])cc1`, at 6.25 µg/mL the inhibition in experiment [1] was 90%. Besides, the Ratio in experiment [2] is listed as more than 258.67. Besides, the IC50 in experiment [3] is 57.5 µg/mL (≈ 169 µM). Moreover, in experiment [4], the MIC is less than 0.2 µg/mL.

`CO[C@H]1/C=C/O[C@@]2(C)Oc3c(C)c(O)c4c(O)c(c(/C=N/N5CCN(C)CC5)c(O)c4c3C2=O)NC(=O)/C(C)=C\C=C\[C@H](C)[C@H](O)[C@@H](C)[C@@H](O)[C@@H](C)[C@H](OC(C)=O)[C@@H]1C` [RIFAMPIN] gave an inhibition at 6.25 µg/mL in experiment [1] of 90%. For the same compound, the Ratio in experiment [2] is on record as more than 800. The IC50 in experiment [3] was more than 100 µg/mL. Moreover, in experiment [4], the lowest concentration to inhibit growth (MIC) was 0.125 µg/mL (≈ 0.152 µM).
